Measured values as given in patent US20110046385A1, “Polymorphs Of Prostaglandin Agonists And Methods For Making The Same” (priority 2007, published 2011).

Key:
[1] = system: tibia defect site; details: beagles, 0.2 mg/kg injected into tibia defect site twice a day for 10 days; cited from earlier work
[2] = system: rib fracture site; details: adult beagles, 0.2 mg injected into rib fracture sites twice a day for 10 days; cited from earlier work
[3] = system: alveolar bone in the mandible; details: dogs, local infusion for 3 weeks, 500 to 2000 μg per week; cited from earlier work
[4] = system: Bone Morphogenetic Protein 7 (BMP-7) expression in 293S cells transfected with EP2; assay: Kidney regeneration assay: BMP-7 expression (Northern blot) in EP2 293S cells; format: cell-based, human; details: 10^-6M, RNA at 8, 16 and 24 hours
Description: (§1) Methods: 293S and EP2 293S cells are grown in Dulbecco's Modified Eagle medium (DMEM, Gibco, BRL; Gaithersburg, Md.). […] Cells are harvested and RNA is extracted at 8, 16 and 24 hours. Northern blot analysis of total RNA ([…]) is carried out by probing the blots with ^32P-labeled BMP-7 probe. The blots are normalized for RNA loading by hybridization with ^32P-labeled 18s ribosomal RNA probe. […] Given the known role of BMP-7 in kidney regeneration and the ability of an prostaglandin agonist to induce BMP-7 expression in 293S kidney cells in a time and receptor specific manner indicates a role for prostaglandin agonist in kidney regeneration.

[5] = system: Bone Morphogenetic Protein 7 (BMP-7) expression in wild type 293S cells; assay: Kidney regeneration assay: BMP-7 expression (Northern blot) in wild type 293S cells; format: cell-based, human; details: parental 293S cell line, 10^-6M, RNA at 8, 16 and 24 hours
Description: as §1

[6] = system: trabecular bone in the tibial metaphysis; details: daily intraosseous injections into left tibia metaphysis for 14 days; cited from earlier work

Compound | periosteal and cortical endosteal bone formation [1] | bone matrix formation at fracture site [2] | alveolar bone formation [3] | induction of BMP-7 expression [4] | induction of BMP-7 expression [5] | trabecular bone in the metaphysis [6]
CCCCC[C@H](O)/C=C/[C@H]1[C@H](O)CC(=O)[C@@H]1CCCCCCC(=O)O [PGE1, prostaglandin E1] | more periosteal and cortical endosteal bone formation, with an increased amount of osteoid present | induced bone matrix formation on the periosteal envelope adjacent to the fracture site and its contralateral matching site | dramatic, localized formation of alveolar bone |  |  | 
CCCCC[C@H](O)/C=C/[C@H]1[C@H](O)CC(=O)[C@@H]1C/C=C\CCCC(=O)O [PGE2, prostaglandin E2] |  |  |  | induce the expression of BMP-7 in the EP2 293S cells in a time dependent manner | generally not observed | significant increase of trabecular bone in the metaphysis
